Test [1] concerns the target T1, Aurora kinase A (Homo sapiens) (UniProt O14965).
T1 sequence (whole entry): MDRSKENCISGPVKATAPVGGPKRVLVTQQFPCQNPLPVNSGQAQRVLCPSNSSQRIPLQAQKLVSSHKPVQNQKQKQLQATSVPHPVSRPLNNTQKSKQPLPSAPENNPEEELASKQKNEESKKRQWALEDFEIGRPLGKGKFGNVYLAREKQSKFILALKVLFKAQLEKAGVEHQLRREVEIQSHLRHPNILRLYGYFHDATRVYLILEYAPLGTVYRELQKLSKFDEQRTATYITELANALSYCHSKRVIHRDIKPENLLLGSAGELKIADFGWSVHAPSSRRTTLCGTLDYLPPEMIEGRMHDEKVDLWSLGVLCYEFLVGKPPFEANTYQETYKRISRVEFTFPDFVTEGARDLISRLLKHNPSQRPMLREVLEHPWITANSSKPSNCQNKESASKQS
Briefly: Inhibition of human Aurora A at 18.6 nM by HotSpot assay relative to control.

Test [2] addresses Death-associated protein kinase 3 (Homo sapiens) (UniProt O43293). Briefly: Inhibition of human DAPK3 at 18.6 nM by HotSpot assay relative to control.
The target of test [3] is Protein kinase C gamma type (Homo sapiens) (UniProt P05129). Put plainly: Inhibition of human PKCg at 18.6 nM by HotSpot assay relative to control.
For test [4], the target named is Fibroblast growth factor receptor 4 (Homo sapiens) (UniProt P22455). Briefly: Inhibition of human FGFR4 at 18.6 nM by HotSpot assay relative to control.
The target of test [5] is T2, Tyrosine-protein kinase receptor TYRO3 (Homo sapiens) (UniProt Q06418).
T2 sequence (whole entry): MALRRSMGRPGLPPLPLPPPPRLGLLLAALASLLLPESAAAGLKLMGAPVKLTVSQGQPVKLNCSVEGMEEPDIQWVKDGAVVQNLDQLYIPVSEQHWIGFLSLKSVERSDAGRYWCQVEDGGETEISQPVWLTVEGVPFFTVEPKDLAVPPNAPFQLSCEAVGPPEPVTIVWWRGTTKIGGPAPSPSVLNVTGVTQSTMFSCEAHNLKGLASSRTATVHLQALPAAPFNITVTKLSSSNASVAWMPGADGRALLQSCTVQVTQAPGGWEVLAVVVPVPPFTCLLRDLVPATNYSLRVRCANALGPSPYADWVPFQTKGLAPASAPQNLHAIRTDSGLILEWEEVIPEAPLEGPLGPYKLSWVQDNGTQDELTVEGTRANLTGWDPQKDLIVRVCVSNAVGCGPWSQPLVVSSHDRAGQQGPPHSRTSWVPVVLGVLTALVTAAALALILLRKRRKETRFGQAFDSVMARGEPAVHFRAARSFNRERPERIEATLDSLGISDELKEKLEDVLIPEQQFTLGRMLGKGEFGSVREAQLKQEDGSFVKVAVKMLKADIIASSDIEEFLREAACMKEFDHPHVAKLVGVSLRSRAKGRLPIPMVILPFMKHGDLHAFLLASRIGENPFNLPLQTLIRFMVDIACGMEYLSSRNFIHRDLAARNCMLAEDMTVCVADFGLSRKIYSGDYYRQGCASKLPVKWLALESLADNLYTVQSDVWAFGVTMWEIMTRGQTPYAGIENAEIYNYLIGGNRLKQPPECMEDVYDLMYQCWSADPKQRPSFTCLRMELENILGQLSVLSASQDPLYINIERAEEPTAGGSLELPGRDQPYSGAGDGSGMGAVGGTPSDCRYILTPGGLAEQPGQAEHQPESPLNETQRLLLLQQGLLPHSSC
Put plainly: Inhibition of human SKY at 1.82 nM by HotSpot assay relative to control.

The target in test [6] is Calcium/calmodulin-dependent protein kinase type II subunit gamma (Homo sapiens) (UniProt Q13555). Briefly: Inhibition of human CAMK2g at 1.82 nM by HotSpot assay relative to control.
Test [7] addresses Ribosomal protein S6 kinase alpha-4 (Homo sapiens) (UniProt O75676). Put plainly: Inhibition of human RPS6KA4 at 1.82 nM by HotSpot assay relative to control.
Test [8] deals with T3, Ephrin type-B receptor 2 (Homo sapiens) (UniProt P29323).
T3 sequence (whole entry): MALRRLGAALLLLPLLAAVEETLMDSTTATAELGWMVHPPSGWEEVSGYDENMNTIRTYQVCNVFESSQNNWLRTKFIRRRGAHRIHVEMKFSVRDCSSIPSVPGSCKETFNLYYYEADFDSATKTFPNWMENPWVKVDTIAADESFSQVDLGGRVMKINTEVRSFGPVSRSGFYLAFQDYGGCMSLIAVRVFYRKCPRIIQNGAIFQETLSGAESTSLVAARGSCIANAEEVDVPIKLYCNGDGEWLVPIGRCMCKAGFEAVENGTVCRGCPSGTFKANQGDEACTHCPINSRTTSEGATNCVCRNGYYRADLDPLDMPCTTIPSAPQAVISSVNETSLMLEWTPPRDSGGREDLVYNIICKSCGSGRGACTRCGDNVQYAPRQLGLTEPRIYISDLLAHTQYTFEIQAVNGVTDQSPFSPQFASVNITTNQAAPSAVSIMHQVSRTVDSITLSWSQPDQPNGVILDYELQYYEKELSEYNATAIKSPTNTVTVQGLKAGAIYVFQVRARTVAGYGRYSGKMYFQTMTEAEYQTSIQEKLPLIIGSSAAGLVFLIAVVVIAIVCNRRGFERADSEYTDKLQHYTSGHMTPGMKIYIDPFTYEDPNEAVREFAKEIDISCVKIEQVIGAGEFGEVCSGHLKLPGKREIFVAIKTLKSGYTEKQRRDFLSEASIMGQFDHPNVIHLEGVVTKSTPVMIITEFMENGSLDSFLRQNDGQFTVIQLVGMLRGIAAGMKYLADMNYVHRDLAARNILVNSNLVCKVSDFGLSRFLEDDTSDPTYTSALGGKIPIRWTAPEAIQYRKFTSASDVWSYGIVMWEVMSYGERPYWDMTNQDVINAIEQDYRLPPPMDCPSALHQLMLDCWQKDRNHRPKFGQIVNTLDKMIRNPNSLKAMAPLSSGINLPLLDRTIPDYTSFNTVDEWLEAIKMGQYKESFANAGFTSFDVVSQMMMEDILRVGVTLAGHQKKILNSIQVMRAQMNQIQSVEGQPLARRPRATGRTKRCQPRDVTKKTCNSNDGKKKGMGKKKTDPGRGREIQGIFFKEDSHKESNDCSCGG
Put plainly: Inhibition of human EPHB2 at 1.82 nM by HotSpot assay relative to control.

The target in test [9] is Serine/threonine-protein kinase WNK3 (Homo sapiens) (UniProt Q9BYP7). Briefly: Inhibition of human WNK3 at 1.82 nM by HotSpot assay relative to control.
Test [10] deals with Myosin light chain kinase, smooth muscle (Homo sapiens) (UniProt Q15746). Briefly: Inhibition of human MYLK at 1.82 nM by HotSpot assay relative to control.
Test [11] deals with Tyrosine-protein kinase Fgr (Homo sapiens) (UniProt P09769). Put plainly: Inhibition of human FGR at 1.82 nM by HotSpot assay relative to control.
Sequence of Tyrosine-protein kinase Fgr (Homo sapiens) (P09769 2-529 limits assumed): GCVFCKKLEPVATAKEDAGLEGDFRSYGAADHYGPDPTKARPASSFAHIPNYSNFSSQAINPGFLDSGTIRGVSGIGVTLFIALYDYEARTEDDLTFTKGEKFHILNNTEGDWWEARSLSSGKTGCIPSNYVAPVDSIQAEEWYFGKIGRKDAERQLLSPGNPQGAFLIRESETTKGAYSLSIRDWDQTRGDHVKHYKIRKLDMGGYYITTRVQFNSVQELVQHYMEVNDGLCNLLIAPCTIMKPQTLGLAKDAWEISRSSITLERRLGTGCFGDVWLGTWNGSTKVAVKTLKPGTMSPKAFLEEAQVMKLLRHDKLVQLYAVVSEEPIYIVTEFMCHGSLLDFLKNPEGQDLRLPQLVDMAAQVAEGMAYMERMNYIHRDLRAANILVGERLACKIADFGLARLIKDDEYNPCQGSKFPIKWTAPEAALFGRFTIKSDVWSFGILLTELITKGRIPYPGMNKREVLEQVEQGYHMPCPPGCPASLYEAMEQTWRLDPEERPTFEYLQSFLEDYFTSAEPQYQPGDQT

Sequence of Ribosomal protein S6 kinase alpha-4 (Homo sapiens) (O75676 whole entry, looked up): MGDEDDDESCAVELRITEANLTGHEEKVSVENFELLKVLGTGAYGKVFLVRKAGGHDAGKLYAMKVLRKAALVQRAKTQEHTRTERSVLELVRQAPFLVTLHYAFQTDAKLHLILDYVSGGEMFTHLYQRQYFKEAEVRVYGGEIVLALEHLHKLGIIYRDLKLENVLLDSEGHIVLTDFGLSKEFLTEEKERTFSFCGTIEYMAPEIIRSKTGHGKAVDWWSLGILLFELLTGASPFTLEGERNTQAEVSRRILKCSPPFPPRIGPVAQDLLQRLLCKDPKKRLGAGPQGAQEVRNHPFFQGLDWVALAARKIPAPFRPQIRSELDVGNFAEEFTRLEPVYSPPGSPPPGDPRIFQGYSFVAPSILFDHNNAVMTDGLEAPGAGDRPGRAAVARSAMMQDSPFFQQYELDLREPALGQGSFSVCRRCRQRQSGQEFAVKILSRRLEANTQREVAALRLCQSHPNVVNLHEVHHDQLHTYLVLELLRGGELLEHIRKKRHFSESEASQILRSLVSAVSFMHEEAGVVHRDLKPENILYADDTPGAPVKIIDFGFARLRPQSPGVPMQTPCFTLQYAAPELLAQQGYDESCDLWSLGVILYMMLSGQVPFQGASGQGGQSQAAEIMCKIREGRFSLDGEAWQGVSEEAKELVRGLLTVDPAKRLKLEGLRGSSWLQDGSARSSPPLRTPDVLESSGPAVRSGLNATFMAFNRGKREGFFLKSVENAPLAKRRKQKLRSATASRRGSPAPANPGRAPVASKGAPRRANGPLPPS
Sequence of Serine/threonine-protein kinase WNK3 (Homo sapiens) (Q9BYP7 whole entry): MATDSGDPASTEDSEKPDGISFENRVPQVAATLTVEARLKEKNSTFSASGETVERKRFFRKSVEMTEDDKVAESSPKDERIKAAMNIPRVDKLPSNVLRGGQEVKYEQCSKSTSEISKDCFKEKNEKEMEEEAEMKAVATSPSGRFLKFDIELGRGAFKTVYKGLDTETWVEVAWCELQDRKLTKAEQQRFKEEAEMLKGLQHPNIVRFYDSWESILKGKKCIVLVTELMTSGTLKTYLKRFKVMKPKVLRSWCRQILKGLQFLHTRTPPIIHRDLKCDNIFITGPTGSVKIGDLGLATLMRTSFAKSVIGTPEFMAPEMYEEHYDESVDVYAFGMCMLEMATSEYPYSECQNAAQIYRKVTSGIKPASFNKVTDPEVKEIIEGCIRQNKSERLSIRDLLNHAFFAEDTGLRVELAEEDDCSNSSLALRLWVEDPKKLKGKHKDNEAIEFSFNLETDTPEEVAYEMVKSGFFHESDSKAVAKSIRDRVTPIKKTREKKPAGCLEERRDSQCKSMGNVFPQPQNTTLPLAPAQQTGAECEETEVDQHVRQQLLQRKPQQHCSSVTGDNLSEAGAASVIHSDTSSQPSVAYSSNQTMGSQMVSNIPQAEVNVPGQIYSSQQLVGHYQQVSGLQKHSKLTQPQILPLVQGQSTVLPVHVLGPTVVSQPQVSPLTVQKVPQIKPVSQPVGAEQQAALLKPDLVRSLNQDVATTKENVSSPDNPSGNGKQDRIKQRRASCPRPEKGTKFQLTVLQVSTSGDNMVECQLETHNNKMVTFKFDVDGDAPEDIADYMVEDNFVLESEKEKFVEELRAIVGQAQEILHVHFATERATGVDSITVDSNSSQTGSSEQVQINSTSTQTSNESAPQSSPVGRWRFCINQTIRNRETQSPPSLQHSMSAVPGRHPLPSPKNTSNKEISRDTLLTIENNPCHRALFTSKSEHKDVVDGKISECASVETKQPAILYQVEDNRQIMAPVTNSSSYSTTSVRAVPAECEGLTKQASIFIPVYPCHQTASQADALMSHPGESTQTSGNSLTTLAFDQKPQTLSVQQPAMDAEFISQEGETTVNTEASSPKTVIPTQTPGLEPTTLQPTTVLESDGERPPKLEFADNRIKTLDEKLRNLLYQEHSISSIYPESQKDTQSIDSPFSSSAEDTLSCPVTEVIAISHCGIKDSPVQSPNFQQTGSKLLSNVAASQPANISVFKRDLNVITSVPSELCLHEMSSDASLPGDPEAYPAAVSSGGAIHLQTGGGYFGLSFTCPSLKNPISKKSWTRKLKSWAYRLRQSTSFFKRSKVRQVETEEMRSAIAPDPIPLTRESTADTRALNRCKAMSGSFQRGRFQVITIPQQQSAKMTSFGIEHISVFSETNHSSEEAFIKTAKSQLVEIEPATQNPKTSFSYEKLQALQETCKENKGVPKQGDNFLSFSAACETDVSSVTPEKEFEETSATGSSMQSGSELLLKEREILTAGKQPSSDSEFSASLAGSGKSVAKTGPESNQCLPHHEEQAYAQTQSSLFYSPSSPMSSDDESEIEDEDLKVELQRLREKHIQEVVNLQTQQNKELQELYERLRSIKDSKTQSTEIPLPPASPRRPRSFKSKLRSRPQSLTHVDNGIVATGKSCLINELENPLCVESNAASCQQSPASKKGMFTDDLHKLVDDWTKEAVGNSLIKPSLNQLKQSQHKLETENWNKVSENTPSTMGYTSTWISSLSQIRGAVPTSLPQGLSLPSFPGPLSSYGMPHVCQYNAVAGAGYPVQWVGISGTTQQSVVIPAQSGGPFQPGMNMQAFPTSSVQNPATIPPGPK
Sequence of Death-associated protein kinase 3 (Homo sapiens) (O43293 whole entry, looked up): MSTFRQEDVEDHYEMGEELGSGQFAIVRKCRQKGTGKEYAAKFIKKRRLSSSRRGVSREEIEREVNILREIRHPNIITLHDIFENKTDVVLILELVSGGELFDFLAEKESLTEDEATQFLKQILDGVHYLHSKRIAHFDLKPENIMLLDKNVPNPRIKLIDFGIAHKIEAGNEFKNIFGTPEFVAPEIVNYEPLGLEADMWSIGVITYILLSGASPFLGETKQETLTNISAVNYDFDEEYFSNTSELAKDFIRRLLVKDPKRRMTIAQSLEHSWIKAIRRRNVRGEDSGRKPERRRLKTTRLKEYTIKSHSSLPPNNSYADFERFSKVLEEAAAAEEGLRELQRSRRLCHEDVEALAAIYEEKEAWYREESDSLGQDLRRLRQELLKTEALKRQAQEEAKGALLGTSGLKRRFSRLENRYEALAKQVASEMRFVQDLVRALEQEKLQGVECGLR
Sequence of Fibroblast growth factor receptor 4 (Homo sapiens) (P22455 22-802 limits assumed): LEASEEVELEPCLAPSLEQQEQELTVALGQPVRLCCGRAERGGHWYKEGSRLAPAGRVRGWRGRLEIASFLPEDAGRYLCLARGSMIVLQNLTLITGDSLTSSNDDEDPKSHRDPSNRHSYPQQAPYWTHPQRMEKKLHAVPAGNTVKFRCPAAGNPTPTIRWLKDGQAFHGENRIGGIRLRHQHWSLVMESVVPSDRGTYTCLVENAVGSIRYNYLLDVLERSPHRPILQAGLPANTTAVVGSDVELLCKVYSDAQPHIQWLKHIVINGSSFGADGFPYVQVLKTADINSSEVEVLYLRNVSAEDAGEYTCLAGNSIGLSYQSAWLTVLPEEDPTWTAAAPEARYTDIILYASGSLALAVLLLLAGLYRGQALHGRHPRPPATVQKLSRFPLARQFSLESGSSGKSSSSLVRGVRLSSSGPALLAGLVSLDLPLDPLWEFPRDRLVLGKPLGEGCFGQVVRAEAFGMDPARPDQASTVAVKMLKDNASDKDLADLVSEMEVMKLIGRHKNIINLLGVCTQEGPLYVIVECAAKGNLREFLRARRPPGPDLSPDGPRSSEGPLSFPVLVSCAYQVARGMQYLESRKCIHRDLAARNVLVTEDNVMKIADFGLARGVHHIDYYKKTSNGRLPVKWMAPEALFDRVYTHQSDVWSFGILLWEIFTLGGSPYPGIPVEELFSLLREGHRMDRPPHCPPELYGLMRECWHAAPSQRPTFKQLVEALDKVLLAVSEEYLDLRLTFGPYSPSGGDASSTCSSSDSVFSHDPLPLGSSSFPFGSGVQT

For the molecule `C[C@]1(O)C[C@@H](c2nc(-c3ccc4ccc(-c5ccccc5)nc4c3)c3c(N)nccn32)C1`, the inhibition was -2.4% in [1], 6.02% in test [2], -8% in test [3] and 9% in test [4].
As to `C[C@@]1(C(=O)Nc2ccc(F)nc2)CCCN1c1nc(Nc2cc(C3CC3)n[nH]2)c2cccn2n1`, the inhibition in test [5] was -1.49%; in [6], 4.1%; in test [7] it was -3.34%; in [8], -7.51%; in test [9], 3.37%; in [10] it was 2.24%. For the same molecule, in test [11], the inhibition was -3.39%.
